The source of these data is paper PMC6858493 (ACS chemical biology, 2019).

Assay [1] concerns E. coli Lon. Particulars: cited from earlier work.
The target of assay [2] is h20S (β1) (Homo sapiens, UniProt P28072). The assay is described as follows: h20S β1 subunit inhibition assay. Type of assay: biochemical.
In assay [3] the test system is E. coli. The assay is described as follows: Ciprofloxacin persister cell quantification. The assay is classed as cell-based, Escherichia coli.
In assay [4] the test system is E. coli. Nature of the assay: E. coli exponential growth rate. Type of assay: cell-based, Escherichia coli. Conditions: 100 μM compound.
Assay [5] deals with Lon (Escherichia coli, UniProt P0A9M0). The assay is described as follows: biochemical. Type of assay: biochemical, E. coli. Particulars: for inhibition of recombinant Lon: with varied pre-incubation time.
Chain of Lon (Escherichia coli, UniProt P0A9M0) (P0A9M0 whole entry): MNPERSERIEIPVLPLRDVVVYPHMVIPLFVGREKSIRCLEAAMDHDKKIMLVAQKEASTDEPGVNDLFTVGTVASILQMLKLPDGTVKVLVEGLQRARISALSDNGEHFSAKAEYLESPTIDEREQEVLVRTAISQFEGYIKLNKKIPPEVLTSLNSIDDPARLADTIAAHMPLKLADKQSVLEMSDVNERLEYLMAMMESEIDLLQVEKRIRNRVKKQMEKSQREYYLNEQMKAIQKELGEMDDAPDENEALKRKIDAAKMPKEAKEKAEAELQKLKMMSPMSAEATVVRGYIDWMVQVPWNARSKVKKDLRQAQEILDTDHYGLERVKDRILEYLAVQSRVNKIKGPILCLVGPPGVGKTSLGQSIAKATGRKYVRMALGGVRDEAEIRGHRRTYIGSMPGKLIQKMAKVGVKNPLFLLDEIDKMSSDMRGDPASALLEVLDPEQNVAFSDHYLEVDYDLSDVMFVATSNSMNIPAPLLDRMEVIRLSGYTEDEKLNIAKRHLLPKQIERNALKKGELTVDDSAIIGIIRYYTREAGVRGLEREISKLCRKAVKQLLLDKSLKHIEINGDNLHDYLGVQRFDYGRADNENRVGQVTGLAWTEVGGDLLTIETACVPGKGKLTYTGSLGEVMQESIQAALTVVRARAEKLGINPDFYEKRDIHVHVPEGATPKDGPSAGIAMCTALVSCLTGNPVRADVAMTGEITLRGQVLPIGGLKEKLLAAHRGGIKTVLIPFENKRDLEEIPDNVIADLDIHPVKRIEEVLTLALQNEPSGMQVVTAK
Assay [6] has as its system E. coli. The assay is described as follows: Ciprofloxacin MIC measurement. The assay is classed as cell-based, Escherichia coli. Conditions: wild-type cells, 100 μm 11.
Assay [7] concerns the target h20S (β2) (Homo sapiens, UniProt Q99436). Nature of the assay: h20S β2 subunit inhibition assay. The assay is classed as biochemical. Particulars: 60 min enzyme-inhibitor pre-incubation; mean ± SD, n=3.
Assay [8] concerns the target h20S (β5) (Homo sapiens, UniProt P28074). The assay is described as follows: h20S β5 subunit inhibition assay. Type of assay: biochemical.
For assay [9], the system named is E. coli. Nature of the assay: UV-induced filamentation of E. coli. The assay is classed as cell-based, Escherichia coli.
In assay [10] the test system is Lon. Particulars: ratio of normalized cleavage rates at 25 μM substrate.
Assay [11] has as its system RAW 264.7 murine macrophages. The assay is described as follows: cells. The assay is classed as cell-based. Particulars: Mus musculus, RAW264.7, 24 h, read-out: EC50 (cell killing).
Where [12] appears, read: 60 min enzyme-inhibitor pre-incubation, mean ± SD, n=3.

Regarding `CN(C)c1cccc2c(S(=O)(=O)F)cccc12` [dansyl fluoride], in assay [1], the “inhibition of E. coli Lon” value was “only at mM concentrations”.
Regarding `CC(C)C[C@H](NC(=O)[C@H](CC(C)(C)C)NC(=O)[C@H](CCCCNC(=N)N)NC(=O)c1cnccn1)B(O)O` [compound 11, Pyz-hArg-nptGly-Leu-B(OH)2], the IC50 – broadly, the concentration at which inhibition is half-maximal – in assay [2] (setting [12]) amounted to 1900 ± 140 nM; in assay [7] it was 430 ± 40 nM; in assay [8] (setting [12]), 290 ± 6.4 nM. For the same molecule, the “Relative activity (ratio of BZ IC50 to 11 IC50)” value in assay [2] (h20S β1) worked out at 0.2; in assay [5] (Lon) it was 1.2; in assay [8] (h20S β5), 0.1. Moreover, the “time course of killing” value in assay [3] (co-treatment with ciprofloxacin and 100 μM 11) is reported as “faster death than wild type”. For the same molecule, the “fraction of cells that tolerated ciprofloxacin” value in assay [3] (sulA mutant strain) is “this effect was abrogated”; in [3] (wild-type cells, co-treatment with 10 μg/mL ciprofloxacin, LB and M9 media) it was “statistically-significant reduction”. The “effect on exponential growth rates” value in assay [4] is “nor treatment with 100 μM 11 or BZ had an effect”. In [5] (time-dependent inhibition of Lon), the “kinact/KI relative to BZ” value was “two-fold higher”. Also, the “inhibition of recombinant Lon” value in assay [5] is “potent, time-dependent inhibition”. The “effect on MIC of ciprofloxacin” value in assay [6] is listed as “nor treatment of wild-type cells with 100 μm 11 altered the overall MIC”. Besides, the “filamentation after UV stress” value is “no effect on filamentation” in assay [9] (sulA mutant strain) and “dose-dependent increase in filamentation” in assay [9] (wild-type, treatment during 6 h outgrowth following UV-stress).
Mo-Leu-Leu-Phe-ACC [compound 1]: in assay [10], the “selectivity of cleavage, Lon vs h20S” value was “cleaved equally effectively by both Lon and the proteasome”.
As to `CC(C)C[C@H](NC(=O)[C@H](Cc1ccccc1)NC(=O)c1cnccn1)B(O)O` [BZ, bortezomib, reference compound], the “effect on exponential growth rates” value in [4] is listed as “nor treatment with 100 μM 11 or BZ had an effect”. Also, the concentration for a half-maximal effect (EC50) (as a rule, the midpoint of the concentration-response curve) in [11] came out at 160 nM. In addition, in [5], the IC50 was 500 ± 230 nM and the “inhibition of recombinant Lon” value was “potent, time-dependent inhibition”.
